Experimental data reported in US6034134A, “1-Amino-alkylcyclohexane NMDA receptor antagonists” (Merz + Co. GmbH & Co., priority 1998, dated 2000).
Like-named read-outs stand apart in the source and are kept apart here.

Assays:
cortical neurones = assay: Excitotoxicity: glutamate toxicity in cultured cortical neurones (MTT); format: cell-based, rat; conditions: for IC50: Rattus norvegicus, Cortical neurone
Protocol: Cortical neurones were obtained from cerebral cortices of 17/18 day old fetal rats (Wistar), in general following the dissociation procedure described by. After short trypsinization and gentle trituration with fire-polished Pasteur pipettes, the cell suspension was washed by centrifugation. Cells were suspended in serum-free Neurobasal medium with B27 supplement (GIBCO) before plating onto poly-L-lysine (Sigma; 0.2 mg/ml, 20 h, 4° C.) and laminin (Sigma; 2 μg/ml, 1 h, 37° C.)-coated 96-well plates (Falcon, Primaria) at a density of 5×10^4 cells/well. Cortical neurones were maintained at 37° C. in humidified 10% CO2 /90% air. […] The medium was changed first after 4 days in vitro and then every 4 days by replacing 2/3 of the medium with astrocyte-conditioned medium. Cortical neurones between day 12 and 14 in culture were used for the experiments.
New-born rat astrocytes were isolated non-enzymatically according to the method of [24]. Briefly, both hemispheres were dissected from 2-day-old rats, passed through an 80 μm gauze, and triturated with Pasteur pipettes. Cell suspension was made in Dulbecco's modified essential medium (DMEM, Gibco) supplemented with 10% fetal calf serum (FCS, Hyclone), 2 mM glutamine (Gibco) and 50 μg/ml gentamycin and transferred into untreated, plastic culture flasks (Corning; […]). Two days after plating the flasks were shaken for 10 minutes on a rotary platform (150 U/min) to remove microglial cells. The cultures were grown to confluency within 14 days, and the culture medium was changed twice weekly. Thereafter, the glial monolayers were extensively washed with serum-free Neurobasal medium (Gibco) to remove the serum. Flasks were then shaken several times to remove oligodendrocytes and neurones. To obtain conditioned medium from primary astrocytes, the cultures were incubated with fresh Neurobasal medium supplemented with B27 andglutamine. Every 2-3 days the conditioned medium was collected and replaced by fresh medium up to 4 times.
Exposure to EAA was performed in serum-free Neurobasal medium containing 100 μM glutamate and the drug to be tested. After 20 h of incubation, the cytotoxic effect was morphologically examined under a phase contrast microscope and biochemically quantified by measuring cell viability with the MTT test (Promega). This calorimetric assay measures the reduction of a tetrazolium component (MTT) into an insoluble formazan product by the mitochondria of living cells. After incubation of the cortical neurones with the dye solution for approximately 1-4 hours, a solubilization solution was added to lyse the cells and solubilize the colored product (incubation overnight at 37° C., 10% CO2, 90% RH). These samples were then read using an Elisa plate reader (Thermomax, MWG Biotech) at a wavelength of 570 nm. The amount of color produced was directly proportional to the number of viable cells.
(§1) IC50 s in patch clamp, excitotoxicity, and binding studies were calculated according to the four parameter logistic equation using the Grafit computer program (Erithacus Software, England). Ki value for binding studies were then determined according to Cheng and Prusoff. Binding values presented are means±SEM of 3-5 determinations (each performed in duplicate). […] Pearson product moment correlation analysis (Sigma Stat, Jandel Scientific) was used to compare in vitro potencies and in vivo anticonvulsant activity.

NMDA receptor = assay: Patch clamp: NMDA-induced inward currents in cultured hippocampal neurones; format: cell-based, rat
Protocol: Hippocampi were obtained from rat embryos (E20 to E21) and were then transferred to calcium and magnesium free Hank's buffered salt solution (Gibco) on ice. Cells were mechanically dissociated in 0.05% DNAase/0.3% ovomucoid (Sigma) following an 8 minute pre-incubation with 0.66% trypsin/0.1% DNAase (Sigma). The dissociated cells were then centrifuged at 18 ×g for 10 minutes, re-suspended in minimum essential medium (Gibco) and plated at a density of 150,000 cells cm^-2 onto poly-L-lysine (Sigma)-precoated plastic petri dishes (Falcon). The cells were nourished with NaHCO3 /HEPES-buffered minimum essential medium supplemented with 5% fetal calf serum and 5% horse serum (Gibco) and incubated at 37° C. with 5% CO2 at 95% humidity. […] Thereafter the medium was exchanged partially twice weekly.
Patch clamp recordings were made from these neurones with polished glass electrodes (4-6 m.OMEGA.) in the whole cell mode at room temperature (20-22° C.) with the aid of an EPC-7 amplifier (List). Test substances were applied by switching channels of a custom-made fast superfusion system with a common outflow (10-20 ms exchange times). The contents of the intracellular solution were as follows (mM): CsCl (120), TEACl (20), EGTA (10), MgCl2 (1), CaCl2 -(0.2), glucose (10), ATP(2), cAMP (0.25); pH was adjusted to 7.3 with CsOH or HC1. The extracellular solutions had the following basic composition (mM): NaCl (140), KCl (3), CaCl2 (0.2), glucose (10), HEPES (10), sucrose (4.5), tetrodotoxin (TTX 3*10^-4). Glycine (1 μM) was present in all solutions: a concentration sufficient to cause around 80-85% activation of glycineB receptors. Only results from stable cells were accepted for inclusion in the final analysis, i.e., following recovery of responses to NMDA by at least 75% of their depression by the antagonists tested.
as §1

[1] = Maximal electroshock (MES)-induced convulsions in mice; format: in vivo; conditions: for ED50: Mus musculus
Protocol: (§2) NMR female mice (18-28 g) housed 5 per cage were used for the maximal electroshock (MES) and motor impairment tests. […] All compounds were dissolved in 0.9% saline.
(§3) The MES test was performed together with tests for myorelaxant action (traction reflex) and motor coordination (rotarod). For the traction reflex test mice were placed with their forepaws on a horizontal rod and were required to place all 4 paws on the wire within 10 seconds. To test ataxia (motor coordination) mice were placed on rotarod (5 rpm) and were required to remain on the rod for 1 minute. […] These tests were followed by MES (100 Hz, 0.5 second shock duration, 50 mA shock intensity, 0.9 ms impulse duration, Ugo Basile) applied through corneal electrodes. The presence of tonic convulsions was scored (tonic extension of hind paws with minimum angle to the body of 90°). The aim was to obtain ED50 s for all parameters scored (anticonvulsive activity and motor side effects) with use of the Litchfield Wilcoxon test for quantal dose responses. Division of the ED50 for side effects (ataxia or myorelaxation) by the ED50 for antagonism of electroshock convulsions was used as a therapeutic index (TI). […]

[2] = Protocol: All animals were kept with water and food ad libitum under a 12 hour light-dark cycle (light on at 6 a.m.) and at a controlled temperature (20±0.5° C.). All e experiments were performed between 10 a.m. and 5 p.m. Tested agents were injected 30 min. i.p. before the induction of convulsions if not stated otherwise (see below). All compounds were dissolved in 0.9% saline.
[3] = Traction reflex test (myorelaxant action) in mice, therapeutic index versus MES; format: in vivo; conditions: ED50 for traction reflex impairment divided by ED50 for MES; for TI Tract: 30 min
Protocol: as §2, §3

[4] = Table 7, 100 μM glutamate, 20 h, read-out: Glut. Tox. IC50
[5] = Table 9, 100 μM glutamate, read-out: Glut Tox IC50
[6] = Table 7; NMDA 200 μM with glycine 1 μM at -70 mV; read-out: Patch Clamp IC50
[7] = Table 9; NMDA-induced currents; read-out: Patch Clamp IC50
[8] = ip, 0.5 h, Table 7, mice, i.p., 30 min before, read-out: MES ED50
[9] = ip, 0.5 h, Table 8, mice, i.p., 95% confidence limits in parentheses, read-out: MES ED50

Compound | IC50 (cortical neurones; [4]) | IC50 (cortical neurones; [5]) | IC50 (NMDA receptor; [6]) | IC50 (NMDA receptor; [7]) | ED50 [1, 8] | ED50 [1, 9] | Min Lethality ([2]; mouse, in vivo, ip) | TI Tract [3] | neuroprotection in vitro (in words) (cortical neurones) | ED50 ([1]; iv, read-out: ED50 (anticonvulsive) following i.v. administration) | ED50 ([1]; po, read-out: ED50 (anticonvulsive) following p.o. administration) | ED50 ([1]; sc, read-out: ED50 (anticonvulsive) following s.c. administration) | Min Lethality ([2]; i.p., minimal lethal dose) | IC50 (cortical neurones; 20 h, read-out: Glut. Tox. IC50) | IC50 (cortical neurones; read-out: Glut Tox IC50) | IC50 (NMDA receptor; read-out: Patch Clamp IC50; Table 7; NMDA 200 μM with glycine 1 μM at -70 mV) | IC50 (NMDA receptor; read-out: Patch Clamp IC50; Table 9; NMDA-induced currents) | ED50 ([1]; ip, 0.5 h, read-out: MES ED50) | MES ED50 ([1]; Table 8, mice, i.p., 95% confidence limits in parentheses, 30 min) | selectivity ratio at 0.5 h ([3]; mouse, in vivo, ip, read-out: TI Tract)
CC1(C)CC(N)CC(C)(C)C1 [Mrz 2/557] | 6700 nM | 6700 nM | 18.5 µM | 18.5 µM | 43.9 mg/kg | 43.9 mg/kg | > 70 mg/kg | 1.0 | – | – | – | – | – | – | – | – | – | – | – | –
CC1(C)CC(C)(C)CC(C)(N)C1 [Mrz 2/579, 1-amino-1,3,3,5,5-pentamethylcyclohexane] | 2200 nM | 2160 nM | 1.3 µM | 1.29 µM | 3.6 mg/kg | 3.6 mg/kg | – | 2.9 | most potent | 2.5 mg/kg | 13.7 mg/kg | 4.6 mg/kg | 108 mg/kg | – | – | – | – | – | – | –
CC1(C)CC(CN)CC(C)(C)C1.Cl [Mrz 2/580, 3,3,5,5-tetramethylcyclohexylmethylamine hydrochloride] | 5600 nM | 5600 nM | 12.9 µM | 12.9 µM | 27.3 mg/kg | 27.3 mg/kg | – | 1.6 | – | – | – | – | 50 mg/kg | – | – | – | – | – | – | –
CCC1(N)CC(C)(C)CC(C)(C)C1 [Mrz 2/600, 1-amino-1-ethyl-3,3,5,5-tetramethylcyclohexane] | 2100 nM | 2100 nM | 3.7 µM | 3.49 µM | 22.6 mg/kg | 22.6 mg/kg | – | 0.6 | – | – | – | – | 50 mg/kg | – | – | – | – | – | – | –
CCCC1(N)CC(C)(C)CC(C)(C)C1 [Mrz 2/601, 1-amino-1-propyl-3,3,5,5-tetramethylcyclohexane] | – | – | – | – | – | – | – | 1.5 | – | – | – | – | 50 mg/kg | 3500 nM | 3500 nM | 10.5 µM | 10 µM | 15.6 mg/kg | 15.6 (10.4-23.4) mg/kg | –
CCCC1(C)CC(C)(C)CC(C)(N)C1 (stereo not drawn) [Mrz 2/614] | > 10000 nM | 1260 nM | 13.9 µM | 13.9 µM | 23.5 mg/kg | 23.5 mg/kg | > 50 mg/kg | – | – | – | – | – | – | – | – | – | – | – | – | 1.9
CCC1(C)CC(C)(C)CC(C)(N)C1 (stereo not drawn) [Mrz 2/615, 1-amino-1,3,5,5-tetramethyl-3-ethylcyclohexane] | 2300 nM | 2290 nM | 2.9 µM | 2.9 µM | 6.1 mg/kg | 6.1 mg/kg | – | 2.5 | – | – | – | – | > 50 mg/kg | – | – | – | – | – | – | –
